Five compounds from ChEMBL document CHEMBL1141841, “Biotransformation of the trichoderma metabolite 6-n-pentyl-2H-pyran-2-one (6PAP) by selected fungal isolates” (J Nat Prod, 1999) can be followed below.

Each structure is given as a SMILES string. Active and inactive are the calls of the source. The rule behind the calls is not given here.

The subject of the assay is Botrytis cinerea. In words: Antimicrobial activity against Botrytis cinerea by spore germination assay. The assay is classed as functional, organism-based.
Consider `O=C(O)CCc1cccc(=O)o1`, for which the outcome was inactive.

Take `O=c1cccc(CCCCCO)o1`: the outcome was inactive. As for `CC(O)CCCc1cccc(=O)o1` (stereo not given), the entry is “inactive”; as for `CCCCCc1cccc(=O)o1`, “Active”. Next, `O=C(O)CCCCc1cccc(=O)o1`: “inactive”.
